Tests used:
soybean (cv Bayfield) = assay: Photosynthesis of soybean after LCO foliar spray, greenhouse; assay type: in vivo
Experimental: Soybean (cv Bayfield) seeds were surface sterilized with 2% sodium hypochlorite for 3-4 minutes, washed with several changes of sterile distilled water and germinated in plastic trays containing sterile vermiculite. Seedlings at the two-leaf stage, about seven days of planting, were transplanted into 15 cm plastic pots containing promix (Premier Brands Inc., New Rochelle, N.Y., USA). Pots were placed in a greenhouse maintained at 25±2° C. with a day/night cycle of 16/8 h. Plants were watered as required.
Concentrations of LCO (10^−6 M-10^−12 M) were made with distilled water containing 0.02% Tween 20. A control treatment, containing 0.02% Tween 20, but no LCO was also applied. Since the rates of growth and development differed among the plant species used in the experiments, spray treatment was conducted at different times after planting In general, the spray was applied when the plants were big enough to allow easy measurements of leaf photosynthetic rates. The following are the ages of the plants when the sprays were conducted: soybean 21 days after planting (DAP), corn 25 DAP, rice 45 DAP, melon (35 DAP) and canola 30 DAP. The plants were sprayed with LCO solutions until dripping. The sprays were applied with an atomizer (Nalgene, USA). Each plant required 2-3 mL of spray solution. Each treatment was replicated at least five times and organized on the green house bench in a randomized complete block design. Each experiment (with each crop species) was repeated at least twice.
Photosynthesis was recorded every 24 h using a Li-Cor 6400 portable photosynthesis system (Li-Cor Inc., Lincoln, Neb., USA) for 6 days. In the case of soybean the photosynthesis in the second nodal leaf from the top was recorded while in the other species used in the photosynthetic rate was measured for the top-most fully expanded leaf. Soybean plants were harvested after seven days of LCO treatment and dried at 80° C. for 48 h. Data were analyzed with the Statistical Analysis System (SAS Inc., N.C., USA). Percent increase in photosynthesis over the control was calculated.

[1] = system: soybean (cv OAC Bayfield); assay: Growth and yield of soybean under field conditions (1999); assay type: in vivo
Experimental: The soybean experiment was conducted at the Lods Agronomy Research Centre, McGill University, Macdonald Campus, Ste-Anne-de-Bellevue, Quebec, Canada during the period June to September, 1999. A randomized complete block design with three blocks was followed. The plot size was 2×4 m with a row to row spacing of 25 cm and 10 cm between plants within a row. Seeds of soybean (cv OAC Bayfield), treated with commercial Bradyrhizobium japonicum inoculant (Bios Agriculture Inc., Quebec, Canada) at the rate of 3 g per kilogram of seed, were hand planted.
At 25 days after planting twenty plants in each plot were randomly marked and sprayed until dripping with LCO solutions (10^−6, 10^−8 and 10^−10M) containing 0.02% Tween 20 with a hand sprayer. The plants on either side, within the row, of the marked plants were also sprayed. A second spray was carried out at flowering stage and a third spray at pod filling.
As with the indoor experiments, photosynthetic readings were taken every day for five days after the application of LCO. For soybean additional developmental and agronomic data were collected. The first harvest was conducted at 25 days after the first spray treatment. Five plants were harvested from each plot and the following growth variables were analyzed: plant height, number of branches, number of leaves, leaf area, number of flower clusters, number of pods, number of nodules, dry weights of leaves, stem and roots. The final harvest was conducted after physiological maturity of the plants (Fehr et al., 1971); at this time the remaining fifteen treated plants from each plot were harvested and data on number of branches, number of pods, number of seeds and grain yield per plant was collected.

Nod Bj V (C18:1, MeFeu)
photosynthesis (soybean (cv Bayfield); 10^−6 M, day 1 after treatment): 14.9 μmol m^−2 sec^−1 | photosynthesis (soybean (cv Bayfield); 10^−6 M, day 2 after treatment): 12.1 μmol m^−2 sec^−1 | photosynthesis (soybean (cv Bayfield); 10^−6 M, day 4 after treatment): 16.2 μmol m^−2 sec^−1 | photosynthesis (soybean (cv Bayfield); 10^−6 M, day 5 after treatment): 16.7 μmol m^−2 sec^−1 | photosynthesis (soybean (cv Bayfield); 10^−6 M, day 6 after treatment): 13.1 μmol m^−2 sec^−1 | photosynthesis (soybean (cv Bayfield); 10^−7 M, day 1 after treatment): 12.1 μmol m^−2 sec^−1 | photosynthesis (soybean (cv Bayfield); 10^−7 M, day 2 after treatment): 9.1 μmol m^−2 sec^−1 | photosynthesis (soybean (cv Bayfield); 10^−7 M, day 4 after treatment): 12.9 μmol m^−2 sec^−1 | photosynthesis (soybean (cv Bayfield); 10^−7 M, day 5 after treatment): 14.1 μmol m^−2 sec^−1 | photosynthesis (soybean (cv Bayfield); 10^−7 M, day 6 after treatment): 11.1 μmol m^−2 sec^−1 | photosynthesis (soybean (cv Bayfield); 10^−8 M, day 1 after treatment): 13.8 μmol m^−2 sec^−1 | photosynthesis (soybean (cv Bayfield); 10^−8 M, day 2 after treatment): 8.1 μmol m^−2 sec^−1 | photosynthesis (soybean (cv Bayfield); 10^−8 M, day 4 after treatment): 12.3 μmol m^−2 sec^−1 | photosynthesis (soybean (cv Bayfield); 10^−8 M, day 5 after treatment): 16.4 μmol m^−2 sec^−1 | photosynthesis (soybean (cv Bayfield); 10^−8 M, day 6 after treatment): 10.3 μmol m^−2 sec^−1 | photosynthesis (soybean (cv Bayfield); 10^−9 M, day 1 after treatment): 15.8 μmol m^−2 sec^−1 | photosynthesis (soybean (cv Bayfield); 10^−9 M, day 2 after treatment): 8.4 μmol m^−2 sec^−1 | photosynthesis (soybean (cv Bayfield); 10^−9 M, day 4 after treatment): 15.7 μmol m^−2 sec^−1 | photosynthesis (soybean (cv Bayfield); 10^−9 M, day 5 after treatment): 17.5 μmol m^−2 sec^−1 | photosynthesis (soybean (cv Bayfield); 10^−9 M, day 6 after treatment): 11.2 μmol m^−2 sec^−1 | photosynthesis (soybean (cv Bayfield); 10^−10 M, day 1 after treatment): 13.6 μmol m^−2 sec^−1 | photosynthesis (soybean (cv Bayfield); 10^−10 M, day 2 after treatment): 8.7 μmol m^−2 sec^−1 | photosynthesis (soybean (cv Bayfield); 10^−10 M, day 4 after treatment): 14.6 μmol m^−2 sec^−1 | photosynthesis (soybean (cv Bayfield); 10^−10 M, day 5 after treatment): 16.9 μmol m^−2 sec^−1 | photosynthesis (soybean (cv Bayfield); 10^−10 M, day 6 after treatment): 11.2 μmol m^−2 sec^−1 | photosynthesis (soybean (cv Bayfield); 10^−11 M, day 1 after treatment): 14.0 μmol m^−2 sec^−1 | photosynthesis (soybean (cv Bayfield); 10^−11 M, day 2 after treatment): 8.7 μmol m^−2 sec^−1 | photosynthesis (soybean (cv Bayfield); 10^−11 M, day 4 after treatment): 17.4 μmol m^−2 sec^−1 | photosynthesis (soybean (cv Bayfield); 10^−11 M, day 5 after treatment): 17.9 μmol m^−2 sec^−1 | photosynthesis (soybean (cv Bayfield); 10^−11 M, day 6 after treatment): 12.5 μmol m^−2 sec^−1 | photosynthesis (soybean (cv Bayfield); 10^−12 M, day 1 after treatment): 15.0 μmol m^−2 sec^−1 | photosynthesis (soybean (cv Bayfield); 10^−12 M, day 2 after treatment): 10.3 μmol m^−2 sec^−1 | photosynthesis (soybean (cv Bayfield); 10^−12 M, day 4 after treatment): 16.9 μmol m^−2 sec^−1 | photosynthesis (soybean (cv Bayfield); 10^−12 M, day 5 after treatment): 17.0 μmol m^−2 sec^−1 | photosynthesis (soybean (cv Bayfield); 10^−12 M, day 6 after treatment): 12.0 μmol m^−2 sec^−1 | increase in photosynthetic rate (soybean (cv Bayfield); LCO spray, greenhouse, on an average): 50% | Leaf area/Plant ([1]; LCO 10^−6 M, field): 2306.3 cm^2 | No. Branches/Plant ([1]; LCO 10^−6 M, field): 4.2 | No. Leaves/Plant ([1]; LCO 10^−6 M, field): 29.4 | No. Nodules/Plant ([1]; LCO 10^−6 M, field): 63.5 | No. Pod clusters/Plant ([1]; LCO 10^−6 M, field): 24.3 | No. Pods/Plant ([1]; LCO 10^−6 M, field): 42.9 | No. seeds/Plant ([1]; LCO 10^−6 M, field): 104.7 | Plant height ([1]; LCO 10^−6 M, field): 78.5 cm | Root Dry weight/plant ([1]; LCO 10^−6 M, field): 3.0 gm | Seed yield/plant ([1]; LCO 10^−6 M, field): 22.1 gm | Shoot dry weight/Plant ([1]; LCO 10^−6 M, field): 24.7 gm | Leaf area/Plant ([1]; LCO 10^−8 M, field): 2120.4 cm^2 | No. Branches/Plant ([1]; LCO 10^−8 M, field): 5.1 | No. Leaves/Plant ([1]; LCO 10^−8 M, field): 25.4 | No. Nodules/Plant ([1]; LCO 10^−8 M, field): 84.6 | No. Pod clusters/Plant ([1]; LCO 10^−8 M, field): 24.8 | No. Pods/Plant ([1]; LCO 10^−8 M, field): 42.4 | No. seeds/Plant ([1]; LCO 10^−8 M, field): 106.3 | Plant height ([1]; LCO 10^−8 M, field): 85.8 cm | Root Dry weight/plant ([1]; LCO 10^−8 M, field): 2.3 gm | Seed yield/plant ([1]; LCO 10^−8 M, field): 21 gm | Shoot dry weight/Plant ([1]; LCO 10^−8 M, field): 23.7 gm | Leaf area/Plant ([1]; LCO 10^−10 M, field): 1513.1 cm^2 | No. Branches/Plant ([1]; LCO 10^−10 M, field): 3.4 | No. Leaves/Plant ([1]; LCO 10^−10 M, field): 22.2 | No. Nodules/Plant ([1]; LCO 10^−10 M, field): 68.3 | No. Pod clusters/Plant ([1]; LCO 10^−10 M, field): 28.3 | No. Pods/Plant ([1]; LCO 10^−10 M, field): 48.0 | No. seeds/Plant ([1]; LCO 10^−10 M, field): 118.1 | Plant height ([1]; LCO 10^−10 M, field): 83.5 cm | Root Dry weight/plant ([1]; LCO 10^−10 M, field): 2.3 gm | Seed yield/plant ([1]; LCO 10^−10 M, field): 22.6 gm | Shoot dry weight/Plant ([1]; LCO 10^−10 M, field): 19.8 gm | Plant height ([1]; field 1999, LCO treatment vs control): not affected | grain yield enhanced by ([1]; field, spray at seedling, flowering and podfilling stages): 33-44%
